Counter-ions that a name gives are not always drawn. Like-named read-outs stand apart in the source and are kept apart here.
Experiments:
[1] = test system: histamine release from human leukocytes (basophils); experiment: Human basophil assay: inhibition of anti-IgE-induced (IgE-mediated) histamine release; type: cell-based; conditions: for IC50: Leukocyte; for inhibition of histamine release in human basophils (in words): IgE-mediated, in vitro
Experimental: In the experiments reported by this example compounds in accordance with the invention are evaluated to determine their ability to inhibit the IgE-mediated release of histamine from sensitized peripheral leucocytes (basophils). Separation of leukocytes is accomplished by a modification of the method of L. Lichtenstein and A. Osler, J. Exp. Med. 120: 507 (1964). Heparinized human blood (80-100 ml) is mixed with 20 ml of saline (0.2%) containing 0.6 g of dextrose and 1.2 g of dextran in propylene centrifuge tubes. The mixture is kept at ambient temperature for 60-90 minutes to allow the separation of erythrocytes from the platelet-leukocyte-rich supernate. The supernate is removed and centrifuged for 8 minutes at 10×g in the cold. The leukocyte pellet is washed twice with Tris buffer and finally suspended in 150-180 ml Tris-ACM buffer at 1-2×10^6 cells/ml. The reaction is carried out in 12×75 mm plastic tubes at a total volume of […]. The reaction medium includes 0.05 ml rabbit anti-human IgE, 0.2 ml of the test compound in Tris-ACM buffer at concentrations ranging from 10-1000 μM, and 1.0 ml of the leukocyte suspension. The reaction mixture is incubated in a 37° C. shaking water bath for 60 minutes. Upon completion of the reaction, the tubes are centrifuged and the supernatants collected. The protein is removed from the supernatants by precipitation with 0.2 ml of 8% perchloric acid. Histamine release is measured by the automated fluorometric method of W Siraganian and W. Hook in Chapter 108, pages 808-821 of the Manual of Clinical Immunology, 2nd Edition, edited by R. Rose and H. Friedman, published by the American Society for Microbiology, Washington, D.C., 1980. Percent inhibition is calculated as follows: [formula] The concentration which causes a 50 percent inhibition (1C50) of histamine release is interpolated from a plot of percent inhibition versus the logarithm of drug concentration.

[2] = test system: histamine release from basophils activated by ionophore A-23187; experiment: Human basophil assay: inhibition of histamine release induced by non-immunological ionophore A-23187; type: cell-based; conditions: 1000-fold test dosage range
Experimental: Separation of leukocytes is accomplished by a modification of the method of L. Lichtenstein and A. Osler, J. Exp. Med. 120: 507 (1964). Heparinized human blood (80-100 ml) is mixed with 20 ml of saline (0.2%) containing 0.6 g of dextrose and 1.2 g of dextran in propylene centrifuge tubes. The mixture is kept at ambient temperature for 60-90 minutes to allow the separation of erythrocytes from the platelet-leukocyte-rich supernate. The supernate is removed and centrifuged for 8 minutes at 10×g in the cold. The leukocyte pellet is washed twice with Tris buffer and finally suspended in 150-180 ml Tris-ACM buffer at 1-2×10^6 cells/ml.
The reaction is carried out in 12×75 mm plastic tubes at a total volume of 1.23 ml. […] The reaction mixture is incubated in a 37° C. shaking water bath for 60 minutes. Upon completion of the reaction, the tubes are centrifuged and the supernatants collected. The protein is removed from the supernatants by precipitation with 0.2 ml of 8% perchloric acid.
Histamine release is measured by the automated fluorometric method of W Siraganian and W. Hook in Chapter 108, pages 808-821 of the Manual of Clinical Immunology, 2nd Edition, edited by R. Rose and H. Friedman, published by the American Society for Microbiology, Washington, D.C., 1980. Percent inhibition is calculated as follows: [formula] […]

lipoxygenase pathway = experiment: Blocking the metabolic conversion of arachidonic acid in the lipoxygenase pathway; conditions: no method or data given
[3] = 1 h, human basophils, rabbit anti-human IgE, 37° C., 60 minutes, read-out: IN VITRO INHIBITION OF HISTAMINE RELEASE IC50

Compound | IC50 [1, 3] | other results
Clc1ccc(CN2CCN(CCCSSCCCN3CCN(Cc4ccc(Cl)cc4)CC3)CC2)cc1 [Example 1, 1,1'-(Dithiodi-3,1-propanediyl)bis[4-(4-chlorobenzyl)piperazine]] | 2 µM | 
Clc1ccc(CN2CCN(CCSSCCN3CCN(Cc4ccc(Cl)cc4)CC3)CC2)cc1 [Example 2, 1,1'-(dithiodi-2,1-ethanediyl)bis[4-(4-chlorobenzyl)piperazine]tetrahydrochloride] | 2.4 µM | IC50 ([1]; Homo sapiens, anti-IgE, further repetition of testing, read-out: IC50 (histamine release), further repetition): 5.29 µM; IC50 ([1]; Homo sapiens, anti-IgE, range of concentrations up to the limits of its solubility, read-out: IC50 (histamine release)): 3.7 µM; IC50 [2]: 2.67 µM; blocking the metabolic conversion of arachidonic acid in the lipoxygenase pathway (in words) (lipoxygenase pathway): effective in blocking
Cc1ccccc1CN1CCN(CCSSCCN2CCN(Cc3ccccc3C)CC2)CC1 [Example 3, 1,1'-(dithiodi-2,1-ethanediyl)bis[4-(2-methylbenzyl)piperazine]tetrahydrochloride] | 15 µM | 
Clc1ccc(CN2CCN(CCCSCCN3CCN(Cc4ccc(Cl)cc4)CC3)CC2)cc1 [Example 4, {2-[4-(4-chlorobenzyl)piperazin-1-yl)ethyl}{3-[4-(4-chlorobenzyl)piperazin-1-yl]propyl}sulfide tetrahydrochloride] | 2.4 µM | 
Clc1ccc(CN2CCN(CCCSCCCN3CCN(Cc4ccc(Cl)cc4)CC3)CC2)cc1 [Example 5, 1,1'-(thio-3,1-propanediyl) bis-[4-(4-chlorobenzyl)piperazine] tetrahydrochloride] | 1.9 µM | 
[O-][S+](CCCN1CCN(Cc2ccc(Cl)cc2)CC1)CCCN1CCN(Cc2ccc(Cl)cc2)CC1 [Example 6, 1,1'-(sulfinyl-3,1-propanediyl) bis[4-(4-chlorobenzyl)piperazine] tetrahydrochloride] | 5.6 µM | 
O=S(=O)(CCCN1CCN(Cc2ccc(Cl)cc2)CC1)CCCN1CCN(Cc2ccc(Cl)cc2)CC1 [Example 7, 1,1'-(sulfonyl-3,1-propanediyl) bis[4-(4-chlorobenzyl)piperazine] tetrahydrochloride] | 3.4 µM | 
N#Cc1ccc(CN2CCN(CCSSCCN3CCN(Cc4ccc(C#N)cc4)CC3)CC2)cc1 [Example 8, 1,1'-(dithiodi-2,1-ethanediyl)bis[4-(4-cyanobenzyl)piperazine] tetrahydrochloride] | 28 µM | 
c1ccc(CN2CCN(CCCSSCCCN3CCN(Cc4ccccc4)CC3)CC2)cc1 [Example 9, 1,1'-(dithiodi-3,1-propanediyl)bis(4-benzylpiperazine) tetrahydrochloride] | 13.7 µM | 
Cl.Cl.Cl.Cl.Clc1ccc(CCN2CCN(CCCSSCCCN3CCN(CCc4ccc(Cl)cc4)CC3)CC2)cc1 [Example 10, 1,1'-(dithiodi-3,1-propanediyl)-bis [4-(4-chlorophenethyl)piperazine] tetrahydrochloride] | > 1000 µM | inhibition of histamine release in human basophils (in words) [1]: absence of observed activity
Clc1ccc(CN2CCCN(CCCSSCCCN3CCCN(Cc4ccc(Cl)cc4)CC3)CC2)cc1 [Example 11, 1,1'-(dithiodi-3,1-propanediyl)bis[4-(4-chlorobenzyl)homopiperizine] tetrahydrochloride] | > 1000 µM | inhibition of histamine release in human basophils (in words) [1]: absence of observed activity
Cc1ccc(CN2CCN(CCSSCCN3CCN(Cc4ccc(C)cc4)CC3)CC2)cc1 [Example 12, 1,1'-(dithiodi-2,1-ethanediyl)bis[4-(4-methylbenzyl)piperazine] tetrahydrochloride] | 4.7 µM | 
Cl.Cl.Cl.Cl.Clc1ccc(CCCN2CCN(CCSSCCN3CCN(CCCc4ccc(Cl)cc4)CC3)CC2)cc1 [Example 13, 1,1'-(dithiodi-2,1-ethanediyl)bis{4-[3-(4-chlorophenyl)propyl]piperazine} tetrahydrochloride] | > 1000 µM | inhibition of histamine release in human basophils (in words) [1]: absence of observed activity

Source: US4692448A, “Bis(arylpiperazinyl)sulfur compounds” (Boehringer Ingelheim Pharmaceuticals, Inc., priority 1984, dated 1987)
